Holding throughout (parameters): scale not given here
One test concerns MOOVA Monochoria. Description: Postemergence weed control, flooded paddy (Table IV). It counts as in vivo, Monochoria vaginalis. The source says:
(§1) Plastic containers containing weeds which are 3 to 5 cm tall and rice seedlings at the 1.5 to 2.5 leaf stage are flooded with water. The water is maintained at 1.5 to 3 cm above the soil surface for the duration of the experiment. Test compounds are applied as aqueous/acetone mixtures 50/50 v/v directly into the flood water to provide the equivalent of about 0.0313 to 0.500 kg/ha of active ingredient. The treated containers are placed on greenhouse benches and cared for in accordance with conventional greenhouse procedures. Three to four weeks after treatment, the test is terminated and each container is examined and herbicidal effect rated according to the rating system provided in Example 185. The compounds evaluated are reported by compound number given in Example 185.

A further test relates to CYPSE Flatsedge. The test is described as above. It counts as in vivo, Cyperus serotinus.
Text: as §1

Another test relates to ORYSAT Rice, Tebonnet. Nature of the test: Rice tolerance, flooded paddy (Table IV). To be noted: crop tolerance. It counts as in vivo, Oryza sativa.
Text: as §1

The next test relates to CYPIR Rice Flatsedge. Description: Postemergence weed control, flooded paddy (Table IV). It counts as in vivo, Cyperus iria.
Text: as §1

In test [1] the test system is ECHORC Watergrass (Calif.). The description is as above. It counts as in vivo, Echinochloa oryzoides.
Text: as §1

The test system of test [2] is SAGPY Arrowhead (Pygmaea). The description is as above. It counts as in vivo, Sagittaria pygmaea.
Text: as §1

For the compound `Cn1c(C(F)(F)F)cc(=O)n(-c2ccc3snc(C(=O)C(C)(C)C)c3c2)c1=O` [Compound 432, 2,4(1H,3H)-Pyrimidinedione, 1-methyl-3-(3-pivaloyl-1,2-benzisothiazol-5-yl)-6-(trifluoromethyl)-], the herbicidal effect rating with MOOVA Monochoria (0.1250 kg/ha) came out at 9.0; in the test with MOOVA Monochoria (0.2500 kg/ha) it was 9.0; with CYPSE Flatsedge (0.1250 kg/ha), 7.0; with CYPSE Flatsedge (0.2500 kg/ha) it was 9.0; in the test on ORYSAT Rice, Tebonnet (0.1250 kg/ha), 7.0; in the test with ORYSAT Rice, Tebonnet (0.2500 kg/ha), 7.0. In addition, the herbicidal effect rating came out at 9.0 with CYPIR Rice Flatsedge (0.1250 kg/ha); 9.0 in the test on CYPIR Rice Flatsedge (0.2500 kg/ha); 9.0 in test [1] (0.1250 kg/ha); 9.0 in test [1] (0.2500 kg/ha); 2.0 in test [2] (0.1250 kg/ha); 4.0 in test [2] (0.2500 kg/ha).
For `CON(C)C(=O)COc1ccccc1-c1nsc2ccc(-n3c(=O)cc(C(F)(F)F)n(C)c3=O)cc12` [Compound 354, Acetamide,2-{o-{5-[3,6-dihydro-3-methyl-2,6-dioxo-4-(trifluoromethyl)-1(2H)-pyrimidinyl]-1,2-benzisothiazol-3-yl}phenoxy}-N-methoxy-N-methyl-], the herbicidal effect rating was determined as 9.0 in the test with MOOVA Monochoria (0.1250 kg/ha); 9.0 with CYPSE Flatsedge (0.1250 kg/ha); 6.0 with ORYSAT Rice, Tebonnet (0.1250 kg/ha); 9.0 in the test with CYPIR Rice Flatsedge (0.1250 kg/ha); 9.0 in test [1] (0.1250 kg/ha); 9.0 in test [2] (0.1250 kg/ha).
For the compound `CC(C)S(=O)(=O)NC(=O)c1nsc2ccc(-n3c(=O)cc(C(F)(F)F)n(C)c3=O)cc12` [Compound 362, 1,2-Benzisothiazole-3-carboxamide,5-[3,6-dihydro-3-methyl-2,6-dioxo-4-(trifluoromethyl)-1(2H)-pyrimidinyl]-N-(isopropylsulfonyl)-], the herbicidal effect rating with MOOVA Monochoria (0.1250 kg/ha) amounted to 9.0; in the test with MOOVA Monochoria (0.2500 kg/ha), 9.0; in the test with CYPSE Flatsedge (0.1250 kg/ha) it was 9.0; in the test on CYPSE Flatsedge (0.2500 kg/ha), 9.0; in the test with ORYSAT Rice, Tebonnet (0.1250 kg/ha), 3.0; with ORYSAT Rice, Tebonnet (0.2500 kg/ha), 6.0. The herbicidal effect rating came to 8.0 with CYPIR Rice Flatsedge (0.1250 kg/ha); 4.0 in the test on CYPIR Rice Flatsedge (0.2500 kg/ha); 7.0 in test [1] (0.1250 kg/ha); 9.0 in test [1] (0.2500 kg/ha); 4.0 in test [2] (0.1250 kg/ha); 8.0 in test [2] (0.2500 kg/ha).
As for `COC(=O)COc1ccc(C)cc1-c1noc2cc(F)c(-n3c(=O)cc(C(F)(F)F)n(C)c3=O)cc12` [Compound 359, Acetic acid, {{2-{5-[3,6-dihydro-3-methyl-2,6-dioxo-4-(trifluoromethyl)-1(2H)-pyrimidinyl]-6-fluoro-1,2-benzisoxazol-3-yl}-p-tolyl}oxy}-, methyl ester], the herbicidal effect rating in the test on MOOVA Monochoria (0.1250 kg/ha) amounted to 9.0; with CYPSE Flatsedge (0.1250 kg/ha), 0.0; in the test with ORYSAT Rice, Tebonnet (0.1250 kg/ha) it was 4.0; with CYPIR Rice Flatsedge (0.1250 kg/ha), 9.0; in test [1] (0.1250 kg/ha) it was 6.0; in test [2] (0.1250 kg/ha), 0.0.
As for `CC(C)Oc1cccc(-c2nsc3ccc(-n4c(=O)cc(C(F)(F)F)n(C)c4=O)cc23)c1` [Compound 328, 2,4(1H,3H)-Pyrimidinedione, 3-[3-(m-isopropoxyphenyl)-1,2-benzisothiazol-5-yl]-1-methyl-6-(trifluoromethyl)-], the herbicidal effect rating is 9.0 in the test on MOOVA Monochoria (0.1250 kg/ha); 9.0 in the test with MOOVA Monochoria (0.2500 kg/ha); 6.0 in the test with CYPSE Flatsedge (0.1250 kg/ha); 6.0 in the test on CYPSE Flatsedge (0.2500 kg/ha); 4.0 with ORYSAT Rice, Tebonnet (0.1250 kg/ha); 4.0 in the test with ORYSAT Rice, Tebonnet (0.2500 kg/ha). The herbicidal effect rating with CYPIR Rice Flatsedge (0.1250 kg/ha) is 9.0; in the test with CYPIR Rice Flatsedge (0.2500 kg/ha) it was 9.0; in test [1] (0.1250 kg/ha), 9.0; in test [1] (0.2500 kg/ha) it was 9.0; in test [2] (0.1250 kg/ha) it was 2.0; in test [2] (0.2500 kg/ha), 6.0.
For the compound `COCc1nsc2cc(F)c(-n3c(=O)cc(C(F)(F)F)n(C)c3=O)cc12` [Compound 378, 2,4(1H,3H)-Pyrimidinedione, 3-[6-fluoro-3-(methoxymethyl)-1,2-benzisothiazol-5-yl]-1-methyl-6-(trifluoromethyl)-], the herbicidal effect rating in the test on MOOVA Monochoria (0.1250 kg/ha) was found to be 9.0; with CYPSE Flatsedge (0.1250 kg/ha), 9.0; with ORYSAT Rice, Tebonnet (0.1250 kg/ha) it was 9.0; in the test on CYPIR Rice Flatsedge (0.1250 kg/ha) it was 9.0; in test [1] (0.1250 kg/ha), 9.0; in test [2] (0.1250 kg/ha), 9.0.
`Cc1ccc(OCC(=O)OCC2(c3ccccc3)CC2)c(-c2nsc3ccc(-n4c(=O)cc(C(F)(F)F)n(C)c4=O)cc23)c1` [Compound 517, Acetic acid, {{2-{5-[3,6-dihydro-3-methyl-2,6-dioxo-4-(trifluoromethyl)-1(2H)-pyrimidinyl]-1,2-benzisothiazol-3-yl}-p-tolyl}oxy}-, (1-phenylcyclopropyl)methyl ester]: the herbicidal effect rating is 0.0 with CYPSE Flatsedge (0.1250 kg/ha); 0.0 in the test with ORYSAT Rice, Tebonnet (0.1250 kg/ha); 0.0 with ORYSAT Rice, Tebonnet (0.2500 kg/ha); 9.0 in the test on CYPIR Rice Flatsedge (0.1250 kg/ha); 9.0 in the test with CYPIR Rice Flatsedge (0.2500 kg/ha); 0.0 in test [1] (0.1250 kg/ha). In test [1] (0.2500 kg/ha), this compound came in with a herbicidal effect rating of 0.0.
Take `CCOc1cccc(-c2nsc3ccc(-n4c(=O)cc(C(F)(F)F)n(C)c4=O)cc23)c1` [Compound 327, 2,4(1H,3H)-Pyrimidinedione, 3-[3-(m-ethoxyphenyl)-1,2-benzisothiazol-5-yl]-1-methyl-6-(trifluoromethyl)-]: the herbicidal effect rating stood at 9.0 in the test on MOOVA Monochoria (0.1250 kg/ha); 9.0 with MOOVA Monochoria (0.2500 kg/ha); 0.0 in the test on CYPSE Flatsedge (0.1250 kg/ha); 2.0 in the test with CYPSE Flatsedge (0.2500 kg/ha); 5.0 in the test with ORYSAT Rice, Tebonnet (0.1250 kg/ha); 4.0 with ORYSAT Rice, Tebonnet (0.2500 kg/ha). Further, the herbicidal effect rating in the test on CYPIR Rice Flatsedge (0.1250 kg/ha) was 9.0; in the test on CYPIR Rice Flatsedge (0.2500 kg/ha), 9.0; in test [1] (0.1250 kg/ha) it was 9.0; in test [1] (0.2500 kg/ha) it was 9.0; in test [2] (0.1250 kg/ha) it was 4.0; in test [2] (0.2500 kg/ha) it was 4.0.
As for `C#CCOC(=O)C(C)(C)Oc1ccc(C)cc1-c1nsc2ccc(-n3c(=O)cc(C(F)(F)F)n(C)c3=O)cc12` [Compound 528, Propionic acid, 2-{{2-{5-[3,6-dihydro-3-methyl-2,6-dioxo-4-(trifluoromethyl)-i(2H)-pyrimidinyl]-1,2-benzisothiazol-3-yl}-p-tolyl}oxy}-2-methyl-, 2-propynyl ester], the herbicidal effect rating was determined as 9.0 in the test with CYPSE Flatsedge (0.2500 kg/ha); 2.0 in the test on ORYSAT Rice, Tebonnet (0.1250 kg/ha); 3.0 in the test on ORYSAT Rice, Tebonnet (0.2500 kg/ha); 6.0 in the test on CYPIR Rice Flatsedge (0.1250 kg/ha); 6.0 in the test with CYPIR Rice Flatsedge (0.2500 kg/ha); 0.0 in test [2] (0.1250 kg/ha).
With `COc1cc(C)c(I)cc1-c1nsc2ccc(-n3c(=O)cc(C(F)(F)F)n(C)c3=O)cc12` [Compound 429, 2,4(1H,3H)-Pyrimidinedione,3-[3-(5-iodo-2-methoxy-p-tolyl)-1,2-benzisothiazol-5-yl]-1-methyl-6-(trifluoromethyl)-], the herbicidal effect rating is 7.0 in the test with MOOVA Monochoria (0.1250 kg/ha); 7.0 in the test with MOOVA Monochoria (0.2500 kg/ha); 0.0 in the test with CYPSE Flatsedge (0.1250 kg/ha); 0.0 with CYPSE Flatsedge (0.2500 kg/ha); 2.0 in the test on ORYSAT Rice, Tebonnet (0.1250 kg/ha); 2.0 in the test with ORYSAT Rice, Tebonnet (0.2500 kg/ha). Moreover, the herbicidal effect rating with CYPIR Rice Flatsedge (0.1250 kg/ha) came out at 7.0; with CYPIR Rice Flatsedge (0.2500 kg/ha) it was 9.0; in test [1] (0.1250 kg/ha), 6.0; in test [1] (0.2500 kg/ha), 9.0; in test [2] (0.1250 kg/ha), 0.0; in test [2] (0.2500 kg/ha) it was 0.0.
`CCCCC(=O)c1nsc2ccc(-n3c(=O)cc(C(F)(F)F)n(C)c3=O)cc12` [Compound 431, 2,4(1H,3H)-Pyrimidinedione, 1-methyl-6-(trifluoromethyl)-3-(3-valeryl-1,2-benzisothiazol-5-yl)-]: the herbicidal effect rating with MOOVA Monochoria (0.1250 kg/ha) was found to be 9.0; with MOOVA Monochoria (0.2500 kg/ha), 9.0; in the test with CYPSE Flatsedge (0.1250 kg/ha) it was 0.0; with CYPSE Flatsedge (0.2500 kg/ha), 4.0; in the test with ORYSAT Rice, Tebonnet (0.1250 kg/ha), 3.0; in the test on ORYSAT Rice, Tebonnet (0.2500 kg/ha), 7.0. In addition, the herbicidal effect rating in the test on CYPIR Rice Flatsedge (0.1250 kg/ha) was determined as 9.0; in the test with CYPIR Rice Flatsedge (0.2500 kg/ha), 9.0; in test [1] (0.1250 kg/ha), 9.0; in test [1] (0.2500 kg/ha) it was 9.0; in test [2] (0.1250 kg/ha), 0.0; in test [2] (0.2500 kg/ha), 4.0.
Turning to `COC(=O)COc1ccc(C)cc1-c1noc2ccc(-n3c(=O)cc(C(F)(F)F)n(C)c3=O)c(Cl)c12` [Compound 261, Acetic acid,{{2-{4-chloro-5-[3,6-dihydro-3-methyl-2,6-dioxo-4-(trifluoromethyl)-1(2H)-pyrimidinyl]-1,2-benzisoxazol-3-yl}-p-tolyl}oxy}-, methyl ester], the herbicidal effect rating with MOOVA Monochoria (0.1250 kg/ha) came out at 9.0; in the test on MOOVA Monochoria (0.2500 kg/ha), 9.0; with CYPSE Flatsedge (0.1250 kg/ha) it was 0.0; with CYPSE Flatsedge (0.2500 kg/ha), 0.0; with ORYSAT Rice, Tebonnet (0.1250 kg/ha) it was 0.0; in the test on ORYSAT Rice, Tebonnet (0.2500 kg/ha), 0.0. In addition, the herbicidal effect rating came to 6.0 in the test on CYPIR Rice Flatsedge (0.1250 kg/ha); 6.0 with CYPIR Rice Flatsedge (0.2500 kg/ha); 0.0 in test [1] (0.1250 kg/ha); 0.0 in test [1] (0.2500 kg/ha); 0.0 in test [2] (0.1250 kg/ha); 0.0 in test [2] (0.2500 kg/ha).

The values are drawn from US6156700A, “3-(1,2-Benzisothiazol- and isoxazol-5-yl)-2,4(1H,3H)-pyrimidinedione or thione and 3-(1,2-benzisothiazol- and isoxazol-5-yl)-4(3H)-pyrimidinone or thione herbicidal agents” (American Cyanmid Company, priority 1998, dated 2000).
